Laboratory results taken from patent publication US20260274810A1, “NOVEL MITOFUSIN INHIBITORS” (ALBERT EINSTEIN COLLEGE OF MEDICINE, priority 2023, published 2026).

Columns and labels:
MEFs = test: Cytochrome C release; format: cell-based, mouse; details: 6 hrs; mitofusin dependent
Method: Cytochrome C release. MEFs were seeded in a […] and grown at ~70% confluence. Following 6 hrs treatment with MFI8, cells were harvested and lysed in digitonin buffer [20 mM Hepes, pH 7.2, 10 mM KCl, 5 mM MgCl2, 1 m MEDTA, 1 mM EGTA, 250 mM sucrose, 0.025% Digitonin (from 5% w/v stock) and complete protease inhibitors (Roche Applied Science)] on ice for 10 min. Then, supernatants were isolated by centrifugation at 15,000×g for 10 min. Mitochondrial pellets solubilized in 1% Triton X-100/PBS for 1 hr at 4° C. Solubilized Pellets were subjected to a 14,000×rpm spin for 10 min. Samples were prepared for western blot analysis and separated by 4-12% NuPage (Life Technologies).

[1] = test system: caspase-3/7 in U2OS cells; test: Caspase-3/7 activation assay; format: cell-based
Method: Caspase-3/7 activation assay. Cells (5×10^3 cells/well) were seeded in a 96-well white plate and treated with MASM7, MFI8. Caspase 3/7 activation was measured after 6 hr by addition of the Caspase-Glo 3/7 reagent according to the manufacturer's protocol (Promega). Luminescence was detected by a F200 PRO microplate reader (TECAN). Caspase assays were performed in at least triplicate and the data normalized to vehicle-treated control wells. Dilutions of MASM7 or MFI8 were performed using a TECAN D300e Digital Dispenser from 10 mM stocks.

THP-1 cells = test: Cell death with BV6; format: cell-based
Method: (§1) Cell death assay. Cells (2×10^5 cells/well) were seeded in a 6-well plate and treated with the indicated drugs for 6 hours. Cells were dissociated using Accutase (Thermo Fisher; Cat. #00-4555-56) in order to avoid accidental exposure of phosphatidylserine on the outer plasma membrane. Cell death was evaluated with Dead Cell Apoptosis Kit with Annexin V Alexa Fluor™ 488 & Propidium Iodide (Thermo Fisher; Cat. #V13241) according to manufacturer's protocol. Data was acquired by BD LSRII flow cytometer system using BD FACSDiva software. Data was analyzed by FlowJo (BD).

U2OS cells = test: Cell death with BV6; format: cell-based
Method: as §1

## Cc1cccc(NC(C)c2cc(Cl)ccc2O)c1C (stereo not shown) [MFI8]
MEFs
  cytochrome c release to the cytosol: cytochrome c was released to the cytosol, albeit at modest levels
[1]
  caspase-3/7 activation: induced caspase-3/7 activation
THP-1 cells
  cell death in combination with BV6: synergistically induce cell death
U2OS cells
  cell death in combination with BV6: synergistically induce cell death
